This is an account of results in patent publication US20260258006A1, “NEW ANTIBIOTIC COMPOUNDS” (UNIVERSITÉ CÔTE D'AZUR, priority 2022, published 2026).

Holding throughout (format): cell-based
Data set [1] relates to Staphylococcus aureus strain S25. The data set is described as follows: Minimal Bactericide Concentration (MBC) determination. The note with it: 24 h in fresh media, pathogenic strain. How it is done:
(§1) MIC is defined as the smallest concentration of a compound that inhibits the growth of bacteria. For that, 6 doses were tested (1, 5, 12.5, 25, 50, 100 μM) for both strains incubated at 37° C., for 20 h.
(§2) Minimum inhibitory concentration (MIC, incubation for 20 h) and maximum bactericide concentration (MBC, incubation for 24 h) for S. aureus strains RN4220 and S25.
(§3) 2 Staphylococcus aureus Strains: • RN4220 (non-pathogenic) • S25 (pathogenic) • MIC: minimal inhibitory concentration • MBC: minimal bactericide concentration

Data set [2] has as its system Staphylococcus aureus strain RN4220. Described as above. The note with it: RN4220, 24 h, read-out: MBC RN4220. The procedure:
as §1, §2, §3

The test system of data set [3] is Staphylococcus aureus strain S25. In words: Minimal Inhibitory Concentration (MIC) determination. The note with it: Bacteriostatic, 20 h, 37° C., pathogenic strain. The procedure:
as §1, §2, §3

The test system of data set [4] is Staphylococcus aureus strain RN4220. The description is as above. Particulars: read-out: MIC RN4220. How it is done:
as §1, §2, §3

For data set [5], the system named is human embryonic kidney 293 cells (HEK293). The data set is described as follows: Cytotoxicity by extracellular LDH release (CyQUANT LDH Cytotoxicity Assay Kit). Particulars: HEK293, 24 h, at their active doses (range of MIC and MBC), N=3. How it is done:
• HEK293: 24 h in the presence of the bactericide compounds or DMSO • Method of evaluation: CyQUANT™ LDH Cytotoxicity Assay Kit.
Cytotoxicity through extracellular lactate dehydrogenase (LDH) quantification upon incubation of the compounds with HEK 293T cells at the same range of concentration as MIC and MBC. LDH: positive control, DMEM: negative control. N=3.
Preliminary safety of these compounds towards host cells was evaluated by using a extracellular lactate dehydrogenase (LDH) release model with human embryonic kidney 293 cells (HEK293).
(LDH leaks from cells whose membrane has failed.)

For data set [6], the system named is Staphylococcus aureus strain S25. The data set is described as follows: Bacterial growth inhibition screen at 50 μM. The note with it: S25, 50 μM, 20 h, 37° C. How it is done: (§4) The inhibition of the growth of two Staphylococcus aureus strains ([…], modified laboratory strain, non-pathogenic; and S25, pathogenic strain obtained from patients) by the presence of our compounds were used to evaluate their efficacy as bacteriostatic and/or bactericide compounds.
(§5) All compounds presented were dissolved in DMSO (10 mM stock solution) and tested initially at 50 μM concentration. The bacterial growth was measured after 5 h and 20 h incubation at 37° C. with the compounds. As positive control, the antibiotics ampicillin and kanamycin were used.

Data set [7] concerns Staphylococcus aureus strain RN4220. The data set is described as follows: Bacterial growth inhibition screen at 50 μM. Particulars: RN4220, 50 μM, 20 h, 37° C. The procedure: as §4, §5
Setting [8] is: RN4220, Bacteriostatic, 20 h, 37° C., non-pathogenic strain.

≈ marks a conversion by molar mass, not a printed value. Read-outs that look alike come from different tables or passages of the source.

As to `N=C(Nc1nc2c(Br)cccc2s1)C(Br)Br` [MTF643, 2,2-dibromo-N-(4-bromobenzo[d]thiazol-2-yl)acetimidamide], the MBC was 50 µM (≈ 21.4 µg/mL) in data set [1] and 25 µM (≈ 10.7 µg/mL) in data set [2]. Moreover, the MIC in data set [3] and in data set [4] (setting [8]) was 25 µM (≈ 10.7 µg/mL) throughout. Also, the “cytotoxicity (extracellular LDH level versus DMSO control)” value in data set [5] was “no cytotoxicity activity”.

Consider `N=C(Nc1nc2c(F)cc(F)cc2s1)C(Cl)(Cl)Cl` [MTF573, 2,2,2-trichloro-N-(4,6-difluorobenzo[d]thiazol-2-yl)acetimidamide], for which the MBC in data set [1] and in data set [2] was 50 µM (≈ 16.5 µg/mL) throughout. Moreover, the “bacterial growth / growth inhibition (in words)” value in data set [6] and in data set [7] was “no growth” throughout. Moreover, the MIC was 50 µM (≈ 16.5 µg/mL) in data set [3] and 40 µM (≈ 13.2 µg/mL) in data set [4] (setting [8]). For the same molecule, the “cytotoxicity (extracellular LDH level versus DMSO control)” value in data set [5] is listed as “no cytotoxicity activity”.

As to `O=C(Nc1nc2c(Cl)cc(Cl)cc2s1)C(Cl)(Cl)Cl` [MTF640, N-(4,6-dichlorobenzo[d]thiazol-2-yl)trichloroacetamide], the minimum bactericidal concentration (MBC) in data set [1] and in data set [2] was 50 µM (≈ 18.2 µg/mL) throughout. Besides, the MIC stood at 25 µM (≈ 9.11 µg/mL) in data set [3] and 12.5 µM (≈ 4.56 µg/mL) in data set [4] (setting [8]). In addition, in data set [5], the “cytotoxicity (extracellular LDH level versus DMSO control)” value is given as “no cytotoxicity activity”.

Take `N=C(Nc1nc2c(Cl)cc(Cl)cc2s1)C(Cl)(Cl)Cl` [MTF642, 2,2,2-trichloro-N-(4,6-dichlorobenzo[d]thiazol-2-yl)acetimidamide]: the minimal bactericidal concentration (MBC) in data set [1] turned out to be 50 µM (≈ 18.2 µg/mL); in data set [2], 12.5 µM (≈ 4.54 µg/mL). Moreover, the MIC worked out at 50 µM (≈ 18.2 µg/mL) in data set [3] and 12.5 µM (≈ 4.54 µg/mL) in data set [4] (setting [8]). In addition, the “cytotoxicity (extracellular LDH level versus DMSO control)” value in data set [5] is “no cytotoxicity activity”.

In the case of `Cc1cccc2sc(NC(=N)C(Cl)(Cl)Cl)nc12` [MTF572, 2,2,2-trichloro-N-(4-methylbenzo[d]thiazol-2-yl)acetimidamide], in data set [2], the MBC amounted to 100 µM (≈ 30.9 µg/mL). The “bacterial growth / growth inhibition (in words)” value in data set [6] and in data set [7] was “no growth” throughout. In addition, the MIC worked out at 40 µM (≈ 12.3 µg/mL) in data set [3] and 40 µM (≈ 12.3 µg/mL) in data set [4] (RN4220, 20 h).

For the molecule `N=C(Nc1nc2c(Cl)cccc2s1)C(Cl)(Cl)Cl` [MTF235, 2,2,2-trichloro-N-(4-chlorobenzo[d]thiazol-2-yl)acetimidamide], the MBC in data set [1] and in data set [2] was 50 µM (≈ 16.5 µg/mL) each time. The “bacterial growth / growth inhibition (in words)” value in data set [6] and in data set [7] was “no growth” each time. Also, the MIC in data set [3] and in data set [4] (setting [8]) was 25 µM (≈ 8.23 µg/mL) throughout. The “cytotoxicity (extracellular LDH level versus DMSO control)” value in data set [5] is on record as “no cytotoxicity activity”.

Broadly, the MBC is the smallest concentration meeting the test's criterion for killing. For orientation: MIC means the lowest concentration that inhibits growth of the organism.
